For one experiment, the target named is T1, AuroraB (Homo sapiens, UniProt Q96GD4).
T1 construct: 20 μL of AuroraB FL H is for a final volume of 41 μL; His
The experiment is described as follows: AuroraB Homogeneous Time Resolved Fluorescent (HTRF) kinase assay. It is filed as biochemical. Conditions: average; read-out: AurB_IC50_IP (uM Avg). The method, boiled down: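 Full-length His-tagged kinase phosphorylates biotinylated Histone H3 (0.1 μM final) with ATP in pH 7.5 HEPES containing MgCl, MnCl, DTT and BSA for about 90 min. EDTA-containing detection mix with SA-APC and Eu-anti-phosphoHistone H3 then equilibrated about 60 min; HTRF read with 320 nm excitation, emissions 615/655 nm.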
(Time-resolved FRET reads energy transfer from a long-lived donor to a nearby acceptor.)

The target of the next experiment is T2, AuroraA-TPX2 (Homo sapiens, UniProt O14965).
T2 construct: 20 μL of AuroraA-TPX2 KD GST for a final volume of about 41 μL; GST
T2 sequence (O14965 133-383 limits assumed): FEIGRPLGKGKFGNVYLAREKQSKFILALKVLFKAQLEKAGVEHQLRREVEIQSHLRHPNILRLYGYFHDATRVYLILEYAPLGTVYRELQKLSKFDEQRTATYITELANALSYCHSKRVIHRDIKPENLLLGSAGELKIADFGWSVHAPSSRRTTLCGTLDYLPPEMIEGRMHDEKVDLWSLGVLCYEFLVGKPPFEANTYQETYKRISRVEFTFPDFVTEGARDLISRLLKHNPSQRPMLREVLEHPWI
T2 sequence (Q9ULW0 1-43 partner limits assumed): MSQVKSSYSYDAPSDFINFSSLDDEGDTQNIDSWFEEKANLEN
The experiment is described as follows: AuroraA-TPX2 Homogeneous Time Resolved Fluorescent (HTRF) kinase assay. It is filed as biochemical. Conditions: average; read-out: AurA_IC50_IP (uM Avg). In short, it runs like this:
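HTRF read-out (Eu 615 nm to APC 655 nm) of phosphorylated biotin-PLK, detected with 0.02 nM europium anti-phosphoPLK antibody and 0.0005 mg/mL SA-APC after overnight equilibration.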

Each structure is given as a SMILES string.

T1 sequence (Q96GD4 whole entry): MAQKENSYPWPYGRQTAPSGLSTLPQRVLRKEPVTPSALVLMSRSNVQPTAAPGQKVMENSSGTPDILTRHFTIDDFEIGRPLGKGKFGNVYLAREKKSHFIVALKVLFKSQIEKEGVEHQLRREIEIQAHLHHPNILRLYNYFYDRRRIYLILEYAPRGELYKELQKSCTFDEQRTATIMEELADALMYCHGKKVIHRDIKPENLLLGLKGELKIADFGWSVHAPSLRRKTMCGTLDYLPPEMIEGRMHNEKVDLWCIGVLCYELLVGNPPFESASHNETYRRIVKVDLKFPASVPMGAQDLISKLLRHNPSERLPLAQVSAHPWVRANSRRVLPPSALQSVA

`FC(F)(F)Oc1ccc2nccc(Oc3ccc(Nc4nnc(-c5ccc(Cl)cc5)c5ccccc45)cc3)c2c1` [compound 574]: the IC50 amounted to 0.365 µM at AuroraB and 0.752 µM at AuroraA-TPX2.
The corresponding values for `COc1cnc2c(Sc3ccc(Nc4nnc(N5CCN(CC(F)F)CC5)c5ccccc45)cc3)ccnc2c1` [compound 507] are 0.042 µM and 0.152 µM.
The corresponding values for `COc1cnc2c(Oc3ccc(Nc4nnc(-c5ccc(N(C)C)cc5)c5ccccc45)cc3)ccnc2c1` [compound 194, 4-(4-(dimethylamino)phenyl)-N-(4-((7-(methyloxy)-1,5-naphthyridin-4-yl)oxy)phenyl)-1-phthalazinamine] are 0.01 µM and 0.023 µM.
Regarding `CCc1cc(-c2ccccc2)nnc1Nc1ccc(Oc2ncnc3cc(OC)c(OC)cc23)cc1` [compound 148, N-(4-((6,7-bis(methyloxy)-4-quinazolinyl)oxy)phenyl)-4-ethyl-6-phenyl-3-pyridazinamine], the IC50 at AuroraB was 0.016 µM; on AuroraA-TPX2, 0.062 µM.
On the same counts, the results for `N#Cc1ccc2c(Sc3ccc(Nc4nnc(-c5ccccc5)c5ccccc45)cc3)ccnc2c1` [compound 208, 4-((4-((4-phenyl-1-phthalazinyl)amino)phenyl)thio)-7-quinolinecarbonitrile] are 0.007 µM and 0.18 µM.
As to `COc1cnc2c(Sc3ccc(Nc4nnc(-c5ccccc5)c5ccccc45)cc3F)ccnc2c1` [compound 519], the IC50 at AuroraB came out at 0.053 µM; at AuroraA-TPX2, 0.083 µM.
Turning to `COc1ccc2nccc(Sc3ccc(Nc4nnc(-c5cc(C)cs5)c5ccccc45)cc3)c2n1` [compound 549], the figures for the IC50 at AuroraB and at AuroraA-TPX2 were 0.064 µM and 0.098 µM, respectively.
On to `O=c1ccc2nccc(Oc3ccc(Nc4nnc(-c5ccc(Cl)cc5)c5ccccc45)cc3)c2[nH]1` [compound 569], for which the IC50 was 0.013 µM at AuroraB and 0.128 µM at AuroraA-TPX2.
On the same counts, the results for `CCc1cc(-c2cc(C)cs2)nnc1Nc1ccc(Oc2ccnc3cc(OC)cnc23)cc1` [compound 210, 4-ethyl-N-(4-((7-(methyloxy)-1,5-naphthyridin-4-yl)oxy)phenyl)-6-(4-methyl-2-thienyl)-3-pyridazinamine] are 0.002 µM and 0.031 µM.
The corresponding values for `COc1cnc2c(Oc3ccc(Nc4nnc(-c5ccc6occc6c5)c5ccccc45)cc3)ccnc2c1` [compound 159, 4-(1-benzofuran-5-yl)-N-(4-((7-(methyloxy)-1,5-naphthyridin-4-yl)oxy)phenyl)-1-phthalazinamine] are 0.007 µM and 0.01 µM.
Turning to `COc1cnc2c(Oc3ccc(Nc4nnc(N5CC[C@H]6CCCC[C@H]6C5)c5ccccc45)cc3)ccnc2c1` [compound 173, N-(4-((7-(methyloxy)-1,5-naphthyridin-4-yl)oxy)phenyl)-4-((4aR,8aR)-octahydro-2(1H)-isoquinolinyl)-1-phthalazinamine], the IC50 at AuroraB and on AuroraA-TPX2 was 0.019 µM throughout.
Take `COc1cnc2c(Oc3ccc(Nc4nnc(-c5ccc(C)c(O)c5)c5ccccc45)cc3)ccnc2c1` [compound 449]: the IC50 worked out at 0.006 µM at AuroraB and 0.026 µM at AuroraA-TPX2.
As for `COc1cc2nccc(Oc3ccc(Nc4nnc(-c5cccc(C)n5)c5ccccc45)cc3)c2cn1` [compound 110, N-(4-((7-(methyloxy)-1,6-naphthyridin-4-yl)oxy)phenyl)-4-(6-methyl-2-pyridinyl)-1-phthalazinamine], the IC50 is 0.002 µM at AuroraB and 0.043 µM at AuroraA-TPX2.
On the same counts, the results for `COc1cc2nccc(Oc3ccc(Nc4nnc(-c5ccccc5)c5ccccc45)cc3)c2cc1OC` [compound 90, N-(4-((6,7-bis(methyloxy)-4-quinolinyl)oxy)phenyl)-4-phenyl-1-phthalazinamine] are 0.025 µM and 0.019 µM.
As to `COc1cnc2c(Oc3ccc(Nc4nnc(N5CCN(S(C)(=O)=O)CC5)c5ccccc45)cc3)ccnc2c1` [compound 607], the IC50 stood at 0.324 µM at AuroraB and 2.82 µM on AuroraA-TPX2.
`Cc1ccc(-c2nnc(Nc3ccc(Sc4ccnc5ccoc45)cc3)c3ccccc23)cc1F` [Example 398, 4-(3-Fluoro-4-methylphenyl)-N-(4-(furo[3,2-b]pyridin-7-ylthio)phenyl)phthalazin-1-amine]: the values for the IC50 at AuroraB and at AuroraA-TPX2 were 0.059 µM and 1.73 µM, respectively.
For the compound `COc1cnc2c(Sc3ccc(Nc4nnc(C5=CCNCC5)c5ccccc45)cc3)ccnc2c1` [Example 401, N-(4-(7-Methoxy-1,5-naphthyridin-4-ylthio)phenyl)-4-(1,2,3,6-tetrahydropyridin-4-yl)phthalazin-1-amine], the IC50 at AuroraB was determined as 0.052 µM; at AuroraA-TPX2 it was 0.847 µM.
Regarding `COc1cnc2c(Oc3ccc(Nc4nnc(-c5ccccc5)c(C)c4C)cc3)ccnc2c1` [compound 281, 4,5-dimethyl-N-(4-((7-(methyloxy)-1,5-naphthyridin-4-yl)oxy)phenyl)-6-phenyl-3-pyridazinamine], the values for the IC50 at AuroraB and at AuroraA-TPX2 were 0.019 µM and 0.696 µM, respectively.
For `COc1cnc2c(Oc3ccc(Nc4nnc(-c5cc(CO)cs5)c5ccccc45)cc3)ccnc2c1` [Example 407, (5-(4-(4-(7-Methoxy-1,5-naphthyridin-4-yloxy)phenylamino)phthalazin-1-yl)thiophen-3-yl)methanol], the IC50 turned out to be 0.004 µM at AuroraB and 0.016 µM on AuroraA-TPX2.
The corresponding values for `COc1cccc(-c2nnc(Nc3ccc(Oc4ccnc5cc(C#N)ccc45)cc3)c3ccccc23)n1` [compound 102, 4-((4-((4-(6-(methyloxy)-2-pyridinyl)-1-phthalazinyl)amino)phenyl)oxy)-7-quinolinecarbonitrile] are 0.003 µM and 0.028 µM.
Take `Cc1csc(-c2nnc(Nc3ccc(Oc4ccnc5ccsc45)cc3)c3ccccc23)c1` [compound 289, 4-(4-methyl-2-thienyl)-N-(4-(thieno[3,2-b]pyridin-7-yloxy)phenyl)-1-phthalazinamine]: the results for the IC50 on AuroraB and at AuroraA-TPX2 were 0.011 µM and 0.068 µM, respectively.
Turning to `CC(=O)Nc1ccc2nccc(Oc3ccc(Nc4nnc(-c5ccccc5)c5ccccc45)cc3)c2c1` [Example 43, N-(4-(4-(4-Phenylphthalazin-1-ylamino)phenoxy)quinolin-6-yl)acetamide], the results for the IC50 at AuroraB and on AuroraA-TPX2 were 0.008 µM and 0.112 µM, respectively.
Consider `COCCOc1cc(-c2nnc(Nc3ccc(Sc4ccnc5cc(OC)cnc45)cc3)c3ccccc23)ccc1Cl` [compound 450], for which the results for the IC50 on AuroraB and at AuroraA-TPX2 were 0.054 µM and 0.101 µM, respectively.
The corresponding values for `COc1cc2nccc(Oc3ccc(Nc4nnc(-c5ccccc5)c5ccccc45)cc3)c2cn1` [compound 96, N-(4-((7-(methyloxy)-1,6-naphthyridin-4-yl)oxy)phenyl)-4-phenyl-1-phthalazinamine] are 0.005 µM and 0.026 µM.
As to `Cc1csc(-c2nnc(Nc3ccc(Sc4ccnc5cc(C#N)sc45)cc3)c3ccccc23)c1` [compound 459], the IC50 was 0.15 µM at AuroraB and 0.21 µM on AuroraA-TPX2.
The corresponding values for `CCCN(C)c1nnc(Nc2ccc(Sc3ccnc4cc(OC)cnc34)cc2)c2ccccc12` [compound 524] are 0.099 µM and 0.093 µM.
For the compound `COc1cnc2c(Oc3ccc(Nc4nnc(-c5cc(C)cc(C)c5)c5ccccc45)cc3)ccnc2c1` [compound 188, 4-(3,5-dimethylphenyl)-N-(4-((7-(methyloxy)-1,5-naphthyridin-4-yl)oxy)phenyl)-1-phthalazinamine], the values for the IC50 on AuroraB and at AuroraA-TPX2 were 0.006 µM and 0.017 µM, respectively.

Source of the values: patent publication US8557816B2, “Aurora kinase modulators and method of use” (Amgen Inc., priority 2007, dated 2013).
